Results as given in patent US6261814A, “Carboxylic acid reductase, and methods of using same” (University of Iowa Research Foundation, priority 1998, dated 2001).

Columns and labels:
[1] = biological target: T1, carboxylic acid reductase (aryl aldehyde oxidoreductase) (Nocardia iowensis, UniProt Q6RKB1); assay: Substrate specificity of crude carboxylic acid reductase (100,000×g supernatant); type: biochemical, Nocardia sp. NRRL 5646; design: Crude enzyme preparations consisting of 100,000×g supernatants were used in this study; endogenous in cells; host or cells: Nocardia sp; NRRL 5646, crude 100,000×g supernatant; details: for Relative Activity: 5 mM substrate, 0.15 mM NADPH, 1 mM ATP, 50 mM Tris-HCl pH 7.5, percentage of the initial rate of benzoate reduction; for quality as substrate of the enzyme (in words): substrates of Table 2
Procedure: (§1) Enzyme assay. The standard aryl-aldehyde oxidoreductase assay solution contained 0.15 mM […], 1 mM ATP, and 5 mM sodium benzoate, 10 mM MgCl2 and 0.01 to 0.3 units of enzyme in 50 mM Tris-HCl buffer in a final volume of 0.7 ml. The reference cuvette contained all components except for benzoate. Enzyme reactions were initiated by adding enzyme, and they were monitored by recording the absorption decrease at 340 nm at 25° C. with a Shimadzu 160 spectrophotometer.
Crude enzyme preparations consisting of 100,000×g supernatants were used in this study. […] The relative rate of reduction for each carboxylic acid derivative is expressed as the percentage of the initial rate of benzoate reduction.
The range of oxidoreductase activities of crude, 100,000×g Nocardia extract with a variety of substrates was investigated. Various substituted 2-, 3- and 4-substituted benzoates were examined, including a range of ring-activating and ring-deactivating functional groups. Benzoates substituted with halogens, methyl, methoxy, hydroxy, acetyl, nitro, benzoyl, phenyl, and phenoxyl groups as well as aryl-ring systems containing two (naphthalene) and three (fluorene) rings, and heterocyclic aromatic acids including furoic, nicotinic and indole carboxylic acids were considered. In addition, one cinnamic acid derivative, phenyl-acetate, phenyl-malonate, phenyl-succinate and 2-phenylpropionic acid were studied.

[2] = biological target: T1, carboxylic acid reductase (aryl aldehyde oxidoreductase); assay: Kinetic properties of the purified carboxylic acid reductase (standard enzyme assay); details: for turn-over number: calculated assuming pure enzyme and one active site per molecule; for Vmax: mean of three determinations; for type of inhibition: versus benzoic acid; for apparent Km relative to Km reported for the enzyme from Nocardia asteroides: higher than values reported by Kato et al.
Procedure: as §1
Kinetic constants were obtained by fitting experimental data with the EZ-FIT program developed by Perrella (Perrella, Anal. Biochem. 174:437-447 (1987)).
S(+)-α-Methyl-4-[2-methylpropyl]-benzeneacetic acid (ibuprofen) was from Aldrich Chemical Co. R(-) isomer of ibuprofen was a gift from Dr. Ching-Shih Chen, University of Rhode Island (Chen et al., Biochim. Biophys. Acta 1033:1-6 (1990)). […] Substrate enantiopurities were checked by specific rotation determination for each isomer (Chen and Rosazza, Appl. Environ. Microbiol. 60(4):1292-1296 (1994)).

T1 sequence (Q6RKB1 whole entry): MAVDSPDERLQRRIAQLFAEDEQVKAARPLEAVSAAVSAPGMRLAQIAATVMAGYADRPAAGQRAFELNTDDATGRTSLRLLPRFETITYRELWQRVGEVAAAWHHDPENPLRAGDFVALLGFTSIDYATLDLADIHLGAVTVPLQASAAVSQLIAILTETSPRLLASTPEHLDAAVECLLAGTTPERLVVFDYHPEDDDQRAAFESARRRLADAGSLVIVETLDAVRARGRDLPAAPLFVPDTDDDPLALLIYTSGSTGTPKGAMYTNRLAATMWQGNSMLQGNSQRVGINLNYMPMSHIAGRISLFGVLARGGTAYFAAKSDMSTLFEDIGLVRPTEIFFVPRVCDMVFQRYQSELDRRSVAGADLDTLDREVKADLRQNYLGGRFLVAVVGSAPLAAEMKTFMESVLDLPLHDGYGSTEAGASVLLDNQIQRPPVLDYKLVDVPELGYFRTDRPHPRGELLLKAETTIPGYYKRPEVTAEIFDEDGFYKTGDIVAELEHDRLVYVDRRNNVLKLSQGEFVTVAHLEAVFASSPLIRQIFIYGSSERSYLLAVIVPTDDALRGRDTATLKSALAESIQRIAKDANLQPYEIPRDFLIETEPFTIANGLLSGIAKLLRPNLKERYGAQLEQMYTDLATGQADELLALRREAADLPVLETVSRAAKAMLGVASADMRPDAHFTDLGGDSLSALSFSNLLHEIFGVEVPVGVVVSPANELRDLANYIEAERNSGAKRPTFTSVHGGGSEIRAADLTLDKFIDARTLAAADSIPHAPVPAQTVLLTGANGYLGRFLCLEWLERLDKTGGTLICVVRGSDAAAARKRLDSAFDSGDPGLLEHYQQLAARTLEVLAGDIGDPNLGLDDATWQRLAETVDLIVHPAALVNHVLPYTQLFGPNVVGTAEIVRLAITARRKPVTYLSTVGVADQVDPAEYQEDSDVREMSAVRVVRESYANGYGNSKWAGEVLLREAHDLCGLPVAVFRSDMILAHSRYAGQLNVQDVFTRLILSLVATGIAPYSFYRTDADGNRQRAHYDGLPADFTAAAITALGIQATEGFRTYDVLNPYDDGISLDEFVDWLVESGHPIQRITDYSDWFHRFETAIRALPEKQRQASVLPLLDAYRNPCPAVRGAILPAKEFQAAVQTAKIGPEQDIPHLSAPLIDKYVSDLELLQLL

Row | Compound | Relative Activity [1] | other results
1 | CC(C(=O)O)c1ccccc1 (stereo not drawn) [2-phenyl propionic acid] | 16 percentage | quality as substrate of the enzyme (in words) [1]: slower rates than benzoate
2 | O=C(O)C(C(=O)O)c1ccccc1 [phenyl malonic acid] | 3 percentage | quality as substrate of the enzyme (in words) [1]: slower rates than benzoate
3 | COc1ccc(C(=O)O)cc1 [4-anisic acid] | 36 percentage | 
4 | O=C(O)c1cccc(Br)c1 [3-bromo-benzoic acid] | 105 percentage | quality as substrate of the enzyme (in words) [1]: best substrates
5 | COc1ccccc1C(=O)O [2-anisic acid] | 3 percentage | 
6 | O=C(O)c1ccc2[nH]ccc2c1 [indole-5-carboxylic acid] | 10 percentage | 
7 | O=C(O)c1ccccc1Br [2-bromo-benzoic acid] | 5 percentage | 
8 | O=C(O)c1ccc(O)cc1 [4-hydroxyl-benzoic acid] | 6 percentage | 
9 | O=C(O)c1ccc(C(=O)c2ccccc2)cc1 [4-benzoyl-benzoic acid] | 6 percentage | 
10 | O=Cc1ccccc1 [benzaldehyde] |  | reduction of benzaldehyde to benzyl alcohol ([2]; purified enzyme): did not reduce
11 | O=C(O)Cc1ccccc1 [phenyl acetic acid] | 43 percentage | quality as substrate of the enzyme (in words) [1]: slower rates than benzoate
12 | Cc1cccc(C(=O)O)c1 [3-toluic acid] | 4 percentage | 
13 | O=C(O)c1cccnc1 [nicotinic acid] | 5 percentage | quality as substrate of the enzyme (in words) [1]: slower rates than benzoate
14 | O=C(O)CC(C(=O)O)c1ccccc1 (stereo not drawn) [phenyl succinic acid] | 11 percentage | quality as substrate of the enzyme (in words) [1]: slower rates than benzoate
15 | O=C(O)c1ccccc1[N+](=O)[O-] [2-nitro-benzoic acid] | 0 percentage | 
16 | O=C(O)c1cccc2[nH]ccc12 [indole-4-carboxylic acid] | 0 percentage | 
17 | O=C(O)c1c[nH]c2ccccc12 [indole-3-carboxylic acid] | 2 percentage | 
18 | CC(C)Cc1ccc([C@H](C)C(=O)O)cc1 [S(+)-ibuprofen, S(+)-α-Methyl-4-[2-methylpropyl]-benzeneacetic acid] |  | turn-over number [2]: 186 min⁻¹; Vmax ([2]; purified enzyme, listed as S(+) isomer): 0.148±0.003 μmol/min/mg of protein; Vmax ([2]; purified enzyme, listed as S-(+)): 1.33 μmol/min/mg of protein
19 | O=C(O)c1cccc(F)c1 [3-fluoro-benzoic acid] | 78 percentage | 
20 | Cc1ccccc1C(=O)O [2-toluic acid] | 6 percentage | 
21 | O=C(O)c1ccc(-c2ccccc2)cc1 [4-phenyl-benzoic acid] | 21 percentage | 
22 | CC(=O)c1ccc(C(=O)O)cc1 [4-acetyl-benzoic acid] | 20 percentage | 
23 | O=C(O)c1cccc(C(=O)c2ccccc2)c1 [3-benzoyl-benzoic acid] | 53 percentage | 
24 | Nc1ccccc1C(=O)O [anthranilic acid, 2-amino benzoic acid] |  | Ki [2]: 261 ± 30 µM; NADPH oxidation with the compound in place of benzoic acid ([2]; 5 mM in the enzyme assay solution): no NADPH oxidation was observed; type of inhibition ([2]; listed as 2-amino benzoic acid): typical competitive inhibitor; type of inhibition ([2]; listed as Anthranilic acid): competitive inhibitor
25 | O=C(O)c1ccc(Oc2ccccc2)cc1 [4-phenoxy-benzoic acid] | 11 percentage | 
26 | O=C(O)c1ccoc1 [3-furoic acid] | 22 percentage | 

Row | Compound | Relative Activity [1] | other results
27 | COc1cccc(C=CC(=O)O)c1 [3-methoxy-cinnamic acid] | 8 percentage | 
28 | O=C(O)c1ccccc1C(=O)c1ccccc1 [2-benzoyl-benzoic acid] | 0 percentage | 
29 | O=C(O)c1cccc2c1Cc1ccccc1-2 [fluorene-1-carboxylic acid] | 17 percentage | 
30 | O=C(O)c1ccccc1-c1ccccc1 [2-phenyl-benzoic acid] | 16 percentage | 
31 | O=C(O)c1ccco1 [2-furoic acid] | 18 percentage | 
32 | O=C(O)c1ccccc1O [2-hydroxyl-benzoic acid] | 0 percentage | 
33 | COc1cccc(C(=O)O)c1 [3-anisic acid] | 87 percentage | quality as substrate of the enzyme (in words) [1]: best substrates
34 | O=C(O)c1ccc(Br)cc1 [4-bromo-benzoic acid] | 72 percentage | 
35 | Cc1ccc(C(=O)O)cc1 [4-toluic acid] | 82 percentage | quality as substrate of the enzyme (in words) [1]: best substrates
36 | O=C(O)c1ccc([N+](=O)[O-])cc1 [4-nitro-benzoic acid] | 0 percentage | 
37 | CC(=O)Nc1ccccc1C(=O)O [2-acetylamino-benzoic acid] | 0 percentage | 
38 | CC(=O)c1ccccc1C(=O)O [2-acetyl-benzoic acid] | 4 percentage | 
39 | CC(C)Cc1ccc([C@@H](C)C(=O)O)cc1 [R(-)-ibuprofen] |  | turn-over number [2]: 21 min⁻¹; Vmax ([2]; purified enzyme, listed as R(-) isomer): 1.33+0.02 μmol/min/mg of protein; Vmax ([2]; purified enzyme, listed as R-(-)): 0.15 μmol/min/mg of protein
40 | NC(=O)C1=CN([C@@H]2O[C@H](COP(=O)(O)OP(=O)(O)OC[C@H]3O[C@@H](n4cnc5c(N)ncnc54)[C@H](OP(=O)(O)O)[C@@H]3O)[C@@H](O)[C@H]2O)C=CC1 [NADPH] |  | apparent Km relative to Km reported for the enzyme from Nocardia asteroides [2]: more than 1000 fold
41 | O=C(O)c1cccc(O)c1 [3-hydroxyl-benzoic acid] | 77 percentage | 
42 | CC(=O)Nc1ccc(C(=O)O)cc1 [4-acetylamino-benzoic acid] | 22 percentage | 
43 | O=C(O)c1cccc([N+](=O)[O-])c1 [3-nitro-benzoic acid] | 0 percentage | 
44 | O=C(O)c1cccc2ccccc12 [1-naphthoic acid] | 77 percentage | 
45 | O=C(O)c1ccc2ccccc2c1 [2-naphthoic acid] | 95 percentage | quality as substrate of the enzyme (in words) [1]: best substrates
46 | O=C(O)c1ccccc1Cl [2-chloro-benzoic acid] | 3 percentage | 
47 | O=C(O)c1ccc(F)cc1 [4-fluoro-benzoic acid] | 94 percentage | quality as substrate of the enzyme (in words) [1]: best substrates
48 | O=C(O)c1ccccc1F [2-fluoro-benzoic acid] | 57 percentage | 
49 | O=C(O)c1cc2ccccc2[nH]1 [indole-2-carboxylic acid] | 0 percentage | 
50 | O=C(O)c1cccc(Cl)c1 [3-chloro-benzoic acid] | 124 percentage | quality as substrate of the enzyme (in words) [1]: best substrates
51 | Nc1ncnc2c1ncn2[C@@H]1O[C@H](COP(=O)(O)OP(=O)(O)OP(=O)(O)O)[C@@H](O)[C@H]1O [ATP] |  | apparent Km relative to Km reported for the enzyme from Nocardia asteroides [2]: more than 1000 fold
